One assay has as its system C57BL/6J (ob/ob) mice. Briefly: Chronic 18-day treatment of obese mice with hGH 177-191: body weight gain, food consumption, adipose tissue weight. The format is in vivo, mouse. Conditions: for Initial body wt.: treated group, before 18-day daily i.p. 200 μg/kg. The procedure: FIGS. 1A & 1B show the effect of hGH 177-191 peptide on cumulative body weight gains in male (1A) and female (1B) C57BL/6J (ob/ob) mice during the 18-day treatment period. Animals were given a daily intraperitoneal injection of 0.1 ml of either saline or hGH 177-191 (200 μg/kg body weight). Each points represents the mean±SEM of 6 animals.
FIGS. 2A & 2B show the average daily food consumption (g/mouse/day) of C57BL/6J (ob/ob) mice during an 18day treatment period with hGH 177-191. The treatment for the four groups of animals was as described in FIGS. 1A & 1B. Each point represents the mean±SEM of 6 animals.
The animals of the same age and same sex were randomly divided into two groups, housed 6 per cage and maintained on a normal 12-hr light/dark cycle at a constant room temperature of 25° C. in the animal house of the Department of Biochemistry and—Molecular Biology, Monash University, Clayton, Australia. Animals were fed ad libitum on pre-determined quantity of animal pellets (Clark King, Melboume, Australia) and allowed free access to water at all times. The animals were given a daily intraperitoneal (i.p) injection of 0.1 ml of either the synthetic peptide (200-500 μg/kg body weight) or equivalent volume of physiological saline (0.9% sodium chloride) for appropriate number of days. The i.p. injection was administered with a 30G×½″ (0.31×13 mm) needle on a 1-ml disposable tuberculin syringes, and the site of injection was the lower left quadrant of the abdomen of the animals. To study the effects of controlled-delivery of hGH 177-191 and analogues, slow-release peptide-pellets in a diameter of 3 mm were implanted intradermally in the abdominal region of Zucker rats under anaesthesia. The body weight and food intake were monitored for the periods of time as indicated.
Cumulative weight gain and food consumption were determined at 3-day intervals by the measurements of body weight and uneaten food remaining in the cages. The animals were placed in a covered chamber to minimise movement during the weighing procedure. The food consumption data were obtained by subtracting the amount of uneaten food remaining in the cages from the original provision.
The procedure for the isolation and measurement of intact epididymal fat pads was established in previous studies of epididymal growth of GH-deficient (lit/lit) mice. In the present study, white adipose tissues, either whole epididymal or parametrical fat pads, were excised with the identical techniques as previously described^22 from the mice immediately after sacrifice. The tissues were washed in cold physiological saline, blotted and weighed. For ex vivo lipogenic assays, the portions of adipose tissues without blood vessels were used.

Assay [1] concerns Zucker fatty (fa/fa) rats. Briefly: Chronic treatment of Zucker fatty rats: body weight gain and food consumption. The format is in vivo, rat. The note with it: throughout the treatment period. The procedure: Animals were given a daily intraperitoneal injection of either saline or the peptide (500 μg/kg body weight) (3A) or implanted intradermally with a slow-release tablet (500 μg/day/kg body weight) in the lower quadrant of the abdomen of the animals. The control group was implanted with a placebo tablet in the same manner. Each point represents the mean±SEM of 6 animals.
The treatment for the four groups of animals was as described in FIGS. 3A & 3B. Each point represents the mean±SEM of 6 animals.
The animals of the same age and same sex were randomly divided into two groups, housed 6 per cage and maintained on a normal 12-hr light/dark cycle at a constant room temperature of 25° C. in the animal house of the Department of Biochemistry and—Molecular Biology, Monash University, Clayton, Australia. Animals were fed ad libitum on pre-determined quantity of animal pellets (Clark King, Melboume, Australia) and allowed free access to water at all times. […] The body weight and food intake were monitored for the periods of time as indicated.
Cumulative weight gain and food consumption were determined at 3-day intervals by the measurements of body weight and uneaten food remaining in the cages. […]

For assay [2], the system named is Human Abdominal adipose Tissue. Briefly: Antilipogenic activity in human abdominal adipose tissue. The assay is classed as cell-based. The note with it: 0.1 μM peptide; BSA + insulin. The procedure:
The rate of the incorporation of exogenous [C^14]-glucose into total lipid in adipose tissue was measured as the index of anti-lipogenic activity of hGH 177-191.
Adipose tissues were sliced into segments of approximately 200 mg each and then placed in Krebs-Ringer bicarbonate (KRB) buffer (pH 7.4) containing 2% defatted BSA, and glucose (0.1 mg/ml) and gassed with 95% O2-5% CO2 at 37° C. After 1 hr preincubation, the tissues were transferred to another 2 ml of fresh media containing [C^14]-glucose (final specific activity 0.05 μCi/μmol), […] of insulin (0.1 mU/ml) for a further 90 min incubation (conditions as above). Then the tissues were removed, washed thoroughly with KRB buffer and lipid was extracted with 5 ml of chlorofom/methanol (2:1, v/v) The extraction solution was washed with 2 ml of MeOH-H2O solution containing 0.1% MgCl2. A 2.5 ml aliquot of the washed extraction solution was taken and transferred to scintillation vials. The [C^14] radioactivity was measured with a liquid scintillation counter. The rates of total lipid synthesis were expressed as μmol [C^14]-glucose incorporated into lipid/g tissue/hr.
Tables 6 and 7 show the in vitro antilipogenic and lipolytic activity of hGH 177-191 and two representative analogues (Ref Nos. 9604 and 9605) on human adipose tissue.

Assay [3] has as its system isolated adipose tissues of C57BL/6J (ob/ob) mice. Briefly: Oxidation of free fatty acid in isolated adipose tissues. The assay is classed as cell-based, mouse. Conditions: adipose tissues isolated from obese animals, FIG. 7. The procedure:
FIG. 7 illustrates the in vitro effect of hGH 177-191 on fatty acid oxidation in isolated adipose tissues of C57BL/6J (ob/ob) mice with the determination of the rate of [C^14]O2 production from [C^14]-palmitic acid. The rate of [C^14]-palmitic acid oxidation was expressed as μmol/g tissue/hr.
The effect of hGH 177-191 or analogues on the free fatty acid (FFA) oxidation in the adipose tissues is evaluated by the measure of converted [C^14]O2 from C^14-palmitic acid. The [C^14]O2 a final product of FFA oxidation, was trapped by hyamine hydroxide and measured by liquid scintillation counter. The rate of FFA oxidation was then determined by [C^14] radioactivity.
Adipose tissues removed from laboratory animals were sliced into segments of approximately 200 mg each. The tissues in 25 ml vials containing 2 ml of Krebs-Ringer phosphate (KRP) buffer, and 2% defatted bovine serum albumin (BSA) were pre-incubated at 37° C. for 30 minutes under an atmosphere of carbogen (95%O2/5%CO2) Then the tissues were transferred to Konte flasks with fresh incubation medium with 0.15 mM sodium [C^14]-palmitate (final [C^14]-specific activity, 0.20 μCi/μmol) and hGH 177-191 peptide or analogues (1-1000 nM). […] The [C^14] radioactivity was measured with a liquid scintillation counter. The rate of [C^14]-palmitic acid oxidation to [C^14]O2 was calculated and expressed as μmol/g tissue/hr.

[4] abbreviates: female ob/ob mice, 18-day daily i.p. 200 μg/kg.
Where [5] appears, read: male ob/ob mice, 18-day daily i.p. 200 μg/kg.

Where no end group is shown, it is not given here. A value given as a limit tells only on which side of the number the result lay.

On to “LRIVQCRSVEGSCGF (cysteine pairing not given here) [Ref No. 9401]”, for which the “average daily body weight gain lower than control” value in the assay on C57BL/6J (ob/ob) mice (both male and female ob/ob mice) is “approximately 27%”. Moreover, in the assay with C57BL/6J (ob/ob) mice (setting [4]), the “Adipose tissue (intact parametrical fat pads)” value came out at 3.26 g, the Body wt. gain amounted to 4.0 g, the Final body wt. is given as 52.2 g and the “daily body weight gain” value is 0.22 ± 0.04 g/day. Also, the “reduction of adipose tissue weight versus control” value with C57BL/6J (ob/ob) mice (female ob/ob mice, parametrical fat pads) is at most 12%. This sequence yielded an Initial body wt. in the assay on C57BL/6J (ob/ob) mice (female ob/ob mice) of 48.2 g. In the assay on C57BL/6J (ob/ob) mice (male and female ob/ob mice, 18-day daily i.p. 200 μg/kg), the “cumulative body weight gain versus control (in words)” value is “clear reduction”. Besides, the “average daily food consumption versus control (in words)” value in the assay on C57BL/6J (ob/ob) mice (male and female ob/ob mice, 18-day treatment) is listed as “no significant difference”. Also, in the assay on C57BL/6J (ob/ob) mice (setting [5]), the “Adipose tissue (intact epididymal fat pads)” value is 2.52 ± 0.25 g, the Body wt. gain is on record as 2.9 ± 0.6 g, the Final body wt. stood at 51.5 ± 2.3 g and the “daily body weight gain” value came out at 0.16 ± 0.04 g/day. For the same sequence, in the assay on C57BL/6J (ob/ob) mice (male ob/ob mice, epididymal fat pads), the “reduction of adipose tissue weight versus control” value is recorded as “up to 20%”. Besides, in the assay on C57BL/6J (ob/ob) mice (male ob/ob mice), the Initial body wt. was 48.6 ± 2.0 g. The “food consumption (in words)” value in assay [1] was “unchanged”. The 14C incorporation in assay [2] amounted to 40 ± 3 Av DPM/mg tissue/hour. For the same sequence, the “oxidation of fatty acids (in words)” value in assay [3] is reported as “enhanced”.

The values above are taken from patent US6737407B1, “Treatment of obesity” (Metabolic Pharmaceuticals, Ltd., priority 1997, dated 2004).
